Measured values: patent US8569342B2, “Diastereomers of 4-aryloxy-3-hydroxypiperidines” (Brentwood Equities, Ltd., priority 2003, dated 2013)
Like-named read-outs stand apart in the source and are kept apart here.

Assays:
[1] = molecular target: T1, 5-HT7 (Homo sapiens, UniProt P34969); assay: 5-HT7 receptor binding assay; settings: for inhibition at 0.1 µM: 100 nM compound, read-out: % inhibition of control specific at 100 nM conc.
T1 construct: expressed in transfected cells; host or cells: CHO cells
T1 sequence (P34969 whole entry): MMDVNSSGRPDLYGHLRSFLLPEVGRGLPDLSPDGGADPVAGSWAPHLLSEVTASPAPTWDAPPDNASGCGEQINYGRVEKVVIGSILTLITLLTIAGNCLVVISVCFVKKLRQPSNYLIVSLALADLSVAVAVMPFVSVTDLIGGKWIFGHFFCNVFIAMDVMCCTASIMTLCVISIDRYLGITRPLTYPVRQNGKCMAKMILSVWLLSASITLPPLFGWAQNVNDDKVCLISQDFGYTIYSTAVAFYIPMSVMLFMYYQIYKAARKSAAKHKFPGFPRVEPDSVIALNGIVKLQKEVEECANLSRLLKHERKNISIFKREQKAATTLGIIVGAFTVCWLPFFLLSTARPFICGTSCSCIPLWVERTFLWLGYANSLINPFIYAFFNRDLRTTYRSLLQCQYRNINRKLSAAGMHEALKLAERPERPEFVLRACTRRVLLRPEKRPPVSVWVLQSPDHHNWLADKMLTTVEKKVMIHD

[2] = molecular target: human 5-HT2B receptor (Homo sapiens, UniProt P41595); assay: 5-HT2B receptor binding assay; settings: for inhibition at 0.1 µM: 100 nM compound, 1.2 nM [3H]-LSD, 60 minutes at 22° C., CHO cells, read-out: % inhibition of control specific at 100 nM conc.
Chain of human 5-HT2B receptor (P41595 whole entry): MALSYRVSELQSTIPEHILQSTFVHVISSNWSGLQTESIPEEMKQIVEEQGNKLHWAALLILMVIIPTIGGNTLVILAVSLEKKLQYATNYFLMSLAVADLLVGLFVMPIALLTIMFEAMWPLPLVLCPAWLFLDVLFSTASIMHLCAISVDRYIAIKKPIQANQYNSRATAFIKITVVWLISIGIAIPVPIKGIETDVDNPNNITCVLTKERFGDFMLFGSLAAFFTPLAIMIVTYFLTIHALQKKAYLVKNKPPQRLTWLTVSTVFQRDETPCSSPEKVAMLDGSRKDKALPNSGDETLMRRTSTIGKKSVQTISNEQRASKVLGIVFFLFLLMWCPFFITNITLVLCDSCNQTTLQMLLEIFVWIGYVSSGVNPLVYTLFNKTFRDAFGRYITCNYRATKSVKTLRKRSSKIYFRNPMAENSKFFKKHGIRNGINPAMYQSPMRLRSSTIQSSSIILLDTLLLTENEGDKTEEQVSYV
Experimental: (§1) 5-HT receptor binding assays were performed according to the method well known in the art. See for example Mulerhorn et al. J. Biol. Chem. 269 (1994) 12954-12962, Bonhaus et al. (1995) et al. J. Biol. Chem. 269 (1994) 12954-12962 herein incorporated by reference in its entirety. See also U.S. Pat. Nos. 5,126,363; 5,688,807; 5,786,157; and 5,869,691 herein incorporated by reference in their entirety.
(§2) Briefly, CHO cells expressing human 5-HT receptor subtypes, or membranes prepared therefrom, were incubated with a specific radioactive ligand for 60 minutes at 22° C. (0.5 nM of [^3H]-8-OH-DPAT for 5-HT1A receptors, 1.2 nM of [^3H]-LSD for 5-HT2B receptors). Incubations were performed in the presence or absence of one of the following diastereomers: 10 μM 8-OH-DPAT; 100 nM (3S,4R)-4-(2,3-dimethylphenyl)-3-hydroxypiperidine; 100 nM (3R,4S)-4-(2,3-dimethylphenyl)-3-hydroxypiperidine; 100 nM (3R,4R)-4-(2,3-dimethylphenyl)-3-hydroxypiperidine; 100 nM (3S,4S)-4-(2,3-dimethylphenyl)-3-hydroxypiperidine. Following incubation the cells or membranes were washed recovered and the radioactivity content of the filter used to determine specific receptor binding and inhibition by the essential pure diastereomers.

[3] = molecular target: 5-HT3 (Homo sapiens, UniProt P46098); assay: 5-HT3 receptor binding assay; settings: for inhibition at 0.1 µM: 100 nM compound, read-out: % inhibition of control specific at 100 nM conc.
Chain of 5-HT3 (P46098 24-478): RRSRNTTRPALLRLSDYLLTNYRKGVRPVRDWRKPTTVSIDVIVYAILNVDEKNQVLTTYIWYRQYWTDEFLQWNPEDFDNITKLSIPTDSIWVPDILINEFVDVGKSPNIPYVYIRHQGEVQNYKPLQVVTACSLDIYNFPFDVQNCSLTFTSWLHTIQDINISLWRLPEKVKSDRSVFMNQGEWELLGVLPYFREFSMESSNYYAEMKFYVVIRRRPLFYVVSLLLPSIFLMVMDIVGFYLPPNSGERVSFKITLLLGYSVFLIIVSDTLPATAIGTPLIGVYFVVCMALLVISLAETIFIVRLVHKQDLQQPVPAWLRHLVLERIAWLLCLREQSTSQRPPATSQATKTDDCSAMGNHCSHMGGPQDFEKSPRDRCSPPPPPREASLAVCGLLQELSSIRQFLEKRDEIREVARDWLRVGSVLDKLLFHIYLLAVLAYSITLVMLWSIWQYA

[4] = molecular target: NE uptake (Homo sapiens, UniProt P23975); assay: NE uptake binding assay; settings: for inhibition at 0.1 µM: 100 nM compound, read-out: % inhibition of control specific at 100 nM conc.
Chain of NE uptake (P23975 whole entry): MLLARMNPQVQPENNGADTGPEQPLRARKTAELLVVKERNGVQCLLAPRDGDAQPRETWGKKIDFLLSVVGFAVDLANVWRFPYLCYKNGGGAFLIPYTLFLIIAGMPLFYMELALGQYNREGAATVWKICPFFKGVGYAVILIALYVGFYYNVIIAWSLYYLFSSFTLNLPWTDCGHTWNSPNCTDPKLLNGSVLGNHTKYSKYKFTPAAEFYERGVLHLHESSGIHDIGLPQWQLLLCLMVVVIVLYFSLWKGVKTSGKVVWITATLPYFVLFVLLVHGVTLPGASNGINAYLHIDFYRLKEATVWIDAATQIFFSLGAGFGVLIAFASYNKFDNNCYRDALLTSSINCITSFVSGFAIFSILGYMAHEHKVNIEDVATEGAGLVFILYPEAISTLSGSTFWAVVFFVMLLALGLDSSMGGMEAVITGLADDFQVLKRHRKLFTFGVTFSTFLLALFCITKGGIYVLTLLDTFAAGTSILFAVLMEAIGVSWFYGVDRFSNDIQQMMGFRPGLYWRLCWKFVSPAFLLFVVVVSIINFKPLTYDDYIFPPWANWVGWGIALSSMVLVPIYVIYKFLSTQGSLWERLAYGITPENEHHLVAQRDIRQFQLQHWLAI

[5] = test system: 5-HT4C; assay: 5-HT4C receptor binding assay; parameters: species or system human; settings: for % inhibition of control specific at 100 nM conc.: 100 nM compound
Experimental: as §1, §2

[6] = molecular target: T2, human 5-HT1A receptor (Homo sapiens, UniProt P08908); assay: 5-HT1A receptor binding assay; settings: for inhibition at 0.1 µM: 100 nM compound, 0.5 nM [3H]-8-OH-DPAT, 60 minutes at 22° C., CHO cells, read-out: % inhibition of control specific at 100 nM conc.
T2 construct: expressed in transfected cells; host or cells: CHO cells
T2 sequence (P08908 1-422): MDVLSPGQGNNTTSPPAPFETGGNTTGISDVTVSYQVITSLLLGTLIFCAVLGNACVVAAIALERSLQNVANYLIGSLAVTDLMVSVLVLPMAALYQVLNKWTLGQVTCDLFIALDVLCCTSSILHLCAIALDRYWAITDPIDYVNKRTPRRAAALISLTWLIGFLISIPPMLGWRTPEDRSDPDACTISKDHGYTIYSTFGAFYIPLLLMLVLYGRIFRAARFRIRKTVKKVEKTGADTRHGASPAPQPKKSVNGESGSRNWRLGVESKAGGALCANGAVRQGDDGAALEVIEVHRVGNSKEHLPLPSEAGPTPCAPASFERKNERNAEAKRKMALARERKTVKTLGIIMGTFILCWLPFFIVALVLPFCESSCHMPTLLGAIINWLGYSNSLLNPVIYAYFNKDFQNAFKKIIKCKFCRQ
Experimental: as §1, §2

[7] = molecular target: 5-HT2c (Homo sapiens, UniProt P28335); assay: 5-HT2c receptor binding assay; settings: for inhibition at 0.1 µM: 100 nM compound, read-out: % inhibition of control specific at 100 nM conc.
Chain of 5-HT2c (P28335 33-458): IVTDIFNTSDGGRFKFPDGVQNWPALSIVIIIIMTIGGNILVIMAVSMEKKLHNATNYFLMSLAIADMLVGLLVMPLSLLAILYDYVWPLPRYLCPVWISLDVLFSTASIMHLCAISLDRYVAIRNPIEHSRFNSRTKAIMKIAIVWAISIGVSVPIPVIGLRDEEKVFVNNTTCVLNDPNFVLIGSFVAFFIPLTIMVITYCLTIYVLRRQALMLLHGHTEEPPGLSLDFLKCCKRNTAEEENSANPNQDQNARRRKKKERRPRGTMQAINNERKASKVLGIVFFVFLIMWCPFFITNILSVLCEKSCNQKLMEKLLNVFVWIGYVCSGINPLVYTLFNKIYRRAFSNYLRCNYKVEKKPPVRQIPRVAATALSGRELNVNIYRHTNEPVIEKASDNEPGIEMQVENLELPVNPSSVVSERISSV

[8] = test system: 5-HT reuptake in the brain; settings: Delini-Stula et al.; cited from earlier work
[9] = test system: opiate receptors; settings: in vitro; Waldmeier; cited from earlier work
[10] = test system: 5-HT1 receptors; settings: Waldmeier, cited from earlier work
[11] = test system: benzodiazepine receptors; settings: in vitro; Waldmeier; cited from earlier work
[12] = test system: alpha2-noradrenoceptors; settings: in vitro; Waldmeier; cited from earlier work
[13] = test system: alpha1-noradrenoceptors; settings: in vitro; Waldmeier; cited from earlier work
[14] = test system: muscarinic acetylcholine receptors; settings: in vitro; Waldmeier; cited from earlier work
[15] = test system: doparine receptors; settings: in vivo; Waldmeier; cited from earlier work
[16] = test system: 5-HT uptake processes in the periphery (blood platelets); settings: Delini-Stula et al.; cited from earlier work
[17] = test system: histamine H1 receptors; settings: in vitro; Waldmeier; cited from earlier work
[18] = test system: 5-HT2 receptors; settings: Waldmeier, cited from earlier work
[19] = test system: 5-HT2 receptors; settings: in vivo; Waldmeier; cited from earlier work
[20] = test system: GABAA receptors; settings: in vitro; Waldmeier; cited from earlier work
[21] = test system: beta-noradrenoceptors; settings: in vitro; Waldmeier; cited from earlier work

Row | Structure (SMILES) | inhibition at 0.1 µM [1] | inhibition at 0.1 µM [2] | inhibition at 0.1 µM [3] | inhibition of binding to Ne (Norepinephrine) uptake receptors (in words) [4] | inhibition at 0.1 µM [4] | % inhibition of control specific at 100 nM conc. [5] | inhibition at 0.1 µM [6] | inhibition at 0.1 µM [7] | inhibition of binding to 5-HT7 receptors (in words) [1] | inhibition of binding to 5-HT1A receptors (in words) [6] | inhibition of binding to 5-HT2c receptors (in words) [7] | other results
1 | Cc1cccc(O[C@@H]2CCNC[C@H]2O)c1C | 16% | 6% | 4% | – | -9% | 0% | 16% | -11% | inhibits binding | inhibits binding | – | –
2 | Cc1cccc(O[C@H]2CCNC[C@H]2O)c1C | 1% | 48% | 6% | – | 3% | 8% | 39% | 4% | – | effective inhibitor of binding | effective inhibitor of binding | inhibition of binding to 5-HT2B receptors (in words) [2]: effective inhibitor of binding
3 | Cc1cccc(O[C@H]2CCNC[C@H]2O)c1C.Cc1cccc(O[C@H]2CCNC[C@H]2O)c1C.O=S(=O)(O)O (relative stereo) [ifoxetine, (+/−)-bis-[cis-3-hydroxy-4-(2,3-dimethyl-phenoxy)]-piperidine sulfate] | – | – | – | – | – | – | – | – | – | – | – | block of 5-HT reuptake in the brain [8]: specifically and selectively blocks; interaction with opiate receptors [9]: weak or no interactions; activity at 5-HT1 receptors ([10]; 10 μM of the racemate): minimal activity; interaction with 5-HT1 receptors ([10]; in vitro): weak or no interactions; interaction with benzodiazepine receptors [11]: weak or no interactions; interaction with alpha2-noradrenoceptors [12]: weak or no interactions; interaction with alpha1-noradrenoceptors [13]: weak or no interactions; interaction with muscarinic acetylcholine receptors [14]: weak or no interactions; interaction with doparine receptors [15]: weak or no interactions; effect on 5-HT uptake processes in the periphery (blood platelets) [16]: without affecting; interaction with histamine H1 receptors [17]: weak or no interactions; activity at 5-HT2 receptors ([18]; 10 μM of the racemate): minimal activity; interaction with 5-HT2 receptors ([18]; in vitro): weak or no interactions; interaction with 5-HT2 receptors [19]: weak or no interactions; interaction with GABAA receptors [20]: weak or no interactions; interaction with beta-noradrenoceptors [21]: weak or no interactions

Continued, in another order:

Row | inhibition at 0.1 µM [1] | inhibition at 0.1 µM [2] | inhibition at 0.1 µM [3] | inhibition of binding to Ne (Norepinephrine) uptake receptors (in words) [4] | inhibition at 0.1 µM [4] | % inhibition of control specific at 100 nM conc. [5] | inhibition at 0.1 µM [6] | inhibition at 0.1 µM [7] | inhibition of binding to 5-HT7 receptors (in words) [1] | Structure (SMILES) | inhibition of binding to 5-HT1A receptors (in words) [6] | inhibition of binding to 5-HT2c receptors (in words) [7] | other results
4 | 6% | 6% | 11% | inhibits binding | 8% | 15% | 9% | -17% | – | Cc1cccc(O[C@@H]2CCNC[C@@H]2O)c1C | – | – | inhibition of binding to 5-HT3 receptors (in words) [3]: inhibits binding; inhibition of binding to 5-HT4c receptors (in words) [5]: inhibits binding
5 | 22% | 6% | 5% | inhibits binding | 4% | 5% | -8% | 7% | inhibits binding | Cc1cccc(O[C@H]2CCNC[C@@H]2O)c1C | – | inhibits binding | –
